Data on 68 molecules can be found in ChEMBL document CHEMBL1152484, “3D-QSAR studies on the inhibitors of AP-1 and NF-kappaB mediated transcriptional activation” (Eur J Med Chem, 2009).

This assay is described as follows: Inhibition of AP-1/NF-kappaB transfected in human jurkat T cells assessed as inhibition of transcriptional activation. It counts as cell-based.

As a reminder, the IC50 is the concentration needed to halve the response being measured.

For `CCOC(=O)c1cnc(-c2cccs2)nc1N(C)N1C(=O)C=C(C)C1=O`, the IC50 is 1000 nM.

Turning to `CC1=CC(=O)N(Nc2nc(-c3cccs3)ncc2-c2nnn(C)n2)C1=O`, the IC50 was 200 nM.

For `CC1=CC(=O)N(Nc2nc(C(F)(F)F)nc3cccc(C)c23)C1=O`, the IC50 is 400 nM.

With `CCOC(=O)c1cnc(-c2cc(Cl)nc(Cl)c2)nc1NN1C(=O)C=C(C)C1=O`, the IC50 is 2000 nM.

In the case of `CCOC(=O)c1cnc(C(F)(F)F)nc1NN1C(=O)C=CC1=O`, the IC50 is 10000 nM.

Turning to `CCOC(=O)c1cnc(CC)nc1NN1C(=O)C=C(C)C1=O`, the IC50 was 10000 nM.

Regarding `CCOC(=O)c1cnc(C(F)(F)F)nc1NN1C(=O)C(C)=C(C)C1=O`, the IC50 was 10000 nM.

As for `CCOC(=O)c1cnc(C)nc1NN1C(=O)C=C(C)C1=O`, the IC50 is 16000 nM.

`CCOC(=O)c1cnc(S(=O)(=O)c2ccccc2)nc1NN1C(=O)C=C(C)C1=O`: the IC50 is 10000 nM.

In the case of `CCOC(=O)c1cnc(Oc2ccccc2)nc1NN1C(=O)C=C(C)C1=O`, the IC50 was 15000 nM.

Regarding `CCOC(=O)c1cnc(C(F)(F)F)nc1NN1C(=O)C=C(c2ccccc2)C1=O`, the IC50 was 20000 nM.

As for `CCOC(=O)c1cnc(-c2ccc(C(F)(F)F)cc2)nc1NN1C(=O)C=C(C)C1=O`, the IC50 is 400 nM.

With `CC1=CC(=O)N(Nc2nc(-c3cccs3)ncc2C2=NCCO2)C1=O`, the IC50 is 200 nM.

For `CCOC(=O)c1cnc(-c2ccc(OC)cc2)nc1NN1C(=O)C=C(C)C1=O`, the IC50 is 899 nM.

Regarding `CCOC(=O)c1cnc(-c2cccs2)nc1NN1C(=O)C=C(C)C1=O`, the IC50 is 20 nM.

On to `COc1cccc2nc(C(F)(F)F)nc(NN3C(=O)C=C(C)C3=O)c12`, for which the IC50 was 10 nM.

For the molecule `CC1=CC(=O)N(Nc2nc(-c3ccccc3)nc3ccccc23)C1=O`, the concentration for half-maximal inhibition (IC50) is 100 nM.

As to `CCOC(=O)c1cnc(-c2ccc(F)cc2)nc1N(C)N1C(=O)C=C(C)C1=O`, the IC50 was 3000 nM.

For the molecule `CCOC(=O)c1cnc(-c2ccc(Cl)s2)nc1NN1C(=O)C=C(C)C1=O`, the IC50 was 300 nM.

With `CCOC(=O)c1cnc(C2CC2)nc1NN1C(=O)C=C(C)C1=O`, the IC50 is 1000 nM.

In the case of `COc1cc2c(NN3C(=O)C=C(C)C3=O)nc(-c3cccs3)nc2c(OC)c1OC`, the IC50 is 40 nM.

As to `CC1=CC(=O)N(Nc2nc(-c3cccs3)ncc2-c2nc(C)co2)C1=O`, the IC50 is 200 nM.

With `COc1ccc2c(NN3C(=O)C=C(C)C3=O)nc(-c3cccs3)nc2c1`, the IC50 is 20 nM.

Take `CC1=CC(=O)N(Nc2nc(C(F)(F)F)nc3ccc(O)cc23)C1=O`: the IC50 was 100 nM.

Take `CCOC(=O)c1cnc(-c2cnc3ccccc3c2)nc1NN1C(=O)C=C(C)C1=O`: the IC50 was 10000 nM.

As to `CC1=CC(=O)N(Nc2nc(-c3cccs3)nc3cccc(F)c23)C1=O`, the half-inhibitory concentration (IC50) is 50 nM.

With `CCOC(=O)c1cnc(-c2csc(C)n2)nc1NN1C(=O)C=C(C)C1=O`, the IC50 is 8000 nM.

`CC1=CC(=O)N(Nc2nc(-c3cccs3)ncc2-c2nnc(C)o2)C1=O`: the IC50 is 300 nM.

Regarding `CCOC(=O)c1cnc(C(F)(F)F)nc1NN1C(=O)C=C(C)C1=O`, the half-inhibitory concentration (IC50) was 1000 nM.

Consider `CC1=CC(=O)N(Nc2nc(-c3cccs3)nc3cc(N(C)C)ccc23)C1=O`, for which the IC50 is 40 nM.

As for `CCOC(=O)c1cnc(Cc2ccccc2)nc1NN1C(=O)C=C(C)C1=O`, the IC50 was 7000 nM.

With `CCOC(=O)c1cnc(-c2cccc(OC)c2)nc1NN1C(=O)C=C(C)C1=O`, the IC50 was 5000 nM.

With `CCOC(=O)c1cnc(-n2nc(C)cc2C)nc1NN1C(=O)C=C(C)C1=O`, the IC50 is 10000 nM.

Regarding `CCOC(=O)c1cnc(-c2cccc([N+](=O)[O-])c2)nc1NN1C(=O)C=C(C)C1=O`, the IC50 is 7000 nM.

For the molecule `CC1=CC(=O)N(Nc2nc(C(F)(F)F)nc3ccc([S+](C)[O-])cc23)C1=O` (stereo not drawn), the IC50 was 1000 nM.

Consider `CCOC(=O)c1cnc(SC)nc1NN1C(=O)C=C(C)C1=O`, for which the IC50 is 200 nM.

As for `CCOC(=O)c1cnc(-c2ccncc2)nc1NN1C(=O)C=C(C)C1=O`, the IC50 was 6000 nM.

As for `CCOC(=O)c1cnc(C(C)(C)C)nc1NN1C(=O)C=C(C)C1=O`, the IC50 is 1000 nM.

Regarding `CCOC(=O)c1cnc(-c2ccsc2)nc1NN1C(=O)C=C(C)C1=O`, the IC50 was 100 nM.

As to `CCOC(=O)c1cnc(-c2ccc(F)cc2)nc1NN1C(=O)C=C(C)C1=O`, the IC50 was 700 nM.

`CC1=CC(=O)N(Nc2nc(-c3cccs3)ncc2-c2cc(C)no2)C1=O`: the IC50 was 300 nM.

For `CC1=CC(=O)N(Nc2nc(-c3cccs3)nc3cccc(C)c23)C1=O`, the IC50 is 20 nM.

For `CCOC(=O)c1cnc(Sc2ccccc2)nc1NN1C(=O)C=C(C)C1=O`, the IC50 was 1000 nM.

Regarding `COc1ccc2nc(-c3cccs3)nc(NN3C(=O)C=C(C)C3=O)c2c1`, the 50% inhibitory concentration (IC50) is 3 nM.

On to `COc1ccc2nc(C(F)(F)F)nc(NN3C(=O)C=C(C)C3=O)c2c1`, for which the IC50 was 30 nM.

As to `CCOC(=O)c1cnc(-c2ccccc2)nc1N(C)N1C(=O)C=C(C)C1=O`, the IC50 is 2000 nM.

For the molecule `CC1=CC(=O)N(Nc2nc(C(F)(F)F)nc3cc(N4CCCCC4)ccc23)C1=O`, the IC50 was 200 nM.

With `CCOC(=O)c1cnc(-c2ccc(Cl)cc2)nc1NN1C(=O)C=C(C)C1=O`, the IC50 was 300 nM.

With `CC1=CC(=O)N(Nc2nc(-c3cccs3)ncc2C#N)C1=O`, the IC50 is 5000 nM.

Take `CC1=CC(=O)N(Nc2nc(-c3cccs3)nc3cc(N4CCOCC4)ccc23)C1=O`: the IC50 was 200 nM.

In the case of `CCOC(=O)c1cnc(-c2ccccc2)nc1N(C(C)=O)N1C(=O)C=C(C)C1=O`, the IC50 is 4000 nM.

In the case of `CC1=CC(=O)N(Nc2nc(C(F)(F)F)nc3cc(N(C)C)ccc23)C1=O`, the IC50 was 20 nM.

For the molecule `CCOC(=O)c1cnc(CC)nc1N(C)N1C(=O)C=C(C)C1=O`, the IC50 is 10000 nM.

`COc1cccc2nc(-c3cccs3)nc(NN3C(=O)C=C(C)C3=O)c12` [AS-602868]: the IC50 is 8 nM.

`CCOC(=O)c1cnc(-c2cc(Cl)cc(Cl)c2)nc1NN1C(=O)C=C(C)C1=O`: the IC50 was 300 nM.

For the molecule `CCOC(=O)c1cnc(CC2=CCCCC2)nc1NN1C(=O)C=C(C)C1=O`, the IC50 was 2000 nM.

`CC1=CC(=O)N(Nc2nc(C(F)(F)F)nc3ccc(S(C)(=O)=O)cc23)C1=O`: the IC50 is 8990 nM.

With `COc1cccc2c(NN3C(=O)C=C(C)C3=O)nc(-c3cccs3)nc12`, the IC50 is 50 nM.

For the molecule `CCOC(=O)c1cnc(-c2cc3ccccc3s2)nc1NN1C(=O)C=C(C)C1=O`, the IC50 was 4000 nM.

On to `CC1=CC(=O)N(Nc2nc(-c3cccs3)nc3ccc(Cl)cc23)C1=O`, for which the IC50 was 20 nM.

As to `CCOC(=O)c1cnc(-c2ccc(C)s2)nc1NN1C(=O)C=C(C)C1=O`, the IC50 was 200 nM.

In the case of `CSc1ccc2nc(C(F)(F)F)nc(NN3C(=O)C=C(C)C3=O)c2c1`, the IC50 is 80 nM.

With `CCOC(=O)c1cnc(C(=O)c2ccco2)nc1NN1C(=O)C=C(C)C1=O`, the IC50 was 200 nM.

Take `CC1=CC(=O)N(Nc2nc(C(F)(F)F)nc3ccccc23)C1=O`: the IC50 was 100 nM.

Turning to `CCOC(=O)c1cnc(-c2ccccc2)nc1NN1C(=O)C=C(C)C1=O`, the IC50 is 100 nM.

Turning to `COc1cc2nc(-c3cccs3)nc(NN3C(=O)C=C(C)C3=O)c2cc1OC`, the IC50 is 50 nM.

For the molecule `CCOC(=O)c1cnc(-c2cccc(Br)c2)nc1NN1C(=O)C=C(C)C1=O`, the IC50 was 700 nM.

Turning to `CC1=CC(=O)N(Nc2nc(-c3cccs3)nc3ccccc23)C1=O`, the IC50 is 60 nM.
